Experimental data from the NIST ThermoML archive (doi:10.1016/j.jct.2010.03.011).

What was measured:
[1] = refractive index (Na D-line) (dimensionless); xn = mol fraction of the nth substance listed; details: 298.2 K, 101 kPa, Liquid, Standard Abbe refractometry
[2] = relative permittivity at various frequencies (dimensionless); xn = mol fraction of the nth substance listed; details: 298.2 K, 101.33 kPa, Liquid, Frequency=0.1 MHz, Parallel plate capacitor
[3] = xn = mol fraction of the nth substance listed; details: 298.2 K, 101 kPa, Liquid, Vibrating tube method
[4] = 298.2 K; 101 kPa; Liquid; Vibrating tube method
[5] = refractive index (Na D-line) (dimensionless); details: 298.2 K; 101.33 kPa; Liquid; Standard Abbe refractometry
[6] = relative permittivity at various frequencies (dimensionless); details: 298.2 K; 101.33 kPa; Liquid; Frequency=0.1 MHz

CC(O)C(C)O (stereo unspecified) [2,3-butanediol] + C1COCCO1
Details	refractive index, [1]	relative permittivity, [2]
x1 = 0.03	1.4205	2.386
x1 = 0.096	1.4212	2.798
x1 = 0.19	1.4223	3.592
x1 = 0.29	1.4235	4.778
x1 = 0.38	1.4249	5.985
x1 = 0.488	1.4264	7.881
x1 = 0.6	1.4281	10.205
x1 = 0.69	1.4294	12.277
x1 = 0.82	1.4316	16.001
x1 = 0.9	1.433	18.397

OCCCCO [1,4-butanediol] + CCCCC(CC)CO
x1 = 1
Details	mass density [kg/m3]	refractive index	relative permittivity
[1]	–	1.4447	–
[2]	–	–	31.539
[3]	1013.45	–	–

CC(O)CCO (stereo unspecified) [1,3-butanediol] + CCCCC(CC)CO
Details	mass density, [3] [kg/m3]	refractive index, [1]	relative permittivity, [2]
x1 = 0.1	839.88	1.4295	8.625
x1 = 0.25	855.62	1.4301	10.605
x1 = 0.401	875.88	1.431	13.065
x1 = 0.501	891.81	1.4318	15.056
x1 = 0.6	909.96	1.4329	17.255
x1 = 0.649	919.85	1.4334	18.524
x1 = 0.75	939.91	1.4346	21.039
x1 = 0.9	974.72	1.4367	25.228
x1 = 1	1001.22	1.4383	28.692

CCCCC(CC)CO (stereo unspecified) [2-ethyl-1-hexanol]
Details	mass density [kg/m3]	refractive index	relative permittivity
[4]	830.62	–	–
[5]	–	1.4293	–
[6]	–	–	7.611

CC(O)C(C)O (stereo unspecified) [2,3-butanediol]
Details	mass density [kg/m3]	refractive index	relative permittivity
[4]	994.31	–	–
[5]	–	1.4348	–
[6]	–	–	21.282

CCCCC(CC)CO (stereo unspecified) [2-ethyl-1-hexanol] + OCCCCO
Details	mass density, [3] [kg/m3]	refractive index, [1]	relative permittivity, [2]
x2 = 0.099	840.72	1.4299	8.795
x2 = 0.25	858.3	1.4313	11.008
x2 = 0.4	881.5	1.4329	13.706
x2 = 0.5	897.59	1.4343	15.945
x2 = 0.6	916.55	1.4358	18.45
x2 = 0.649	926.55	1.4368	19.741
x2 = 0.749	948.41	1.439	22.751
x2 = 0.9	984.92	1.4424	27.546

CC(O)C(C)O (stereo unspecified) [2,3-butanediol] + CCCCC(CC)CO
x1 = 1
Details	mass density [kg/m3]	refractive index	relative permittivity
[1]	–	1.4348	–
[2]	–	–	21.282
[3]	994.31	–	–

CC(O)CCO (stereo unspecified) [1,3-butanediol] + C1COCCO1
Details	refractive index, [1]	relative permittivity, [2]
x1 = 0.029	1.4206	2.488
x1 = 0.098	1.4217	3.231
x1 = 0.2	1.4233	4.644
x1 = 0.293	1.4251	6.316
x1 = 0.4	1.4265	8.425
x1 = 0.491	1.4282	10.465
x1 = 0.6	1.4301	13.528
x1 = 0.693	1.4319	16.725
x1 = 0.8	1.4343	20.583
x1 = 0.9	1.4362	24.335

OCCCCO [1,4-butanediol] + C1COCCO1
Details	refractive index, [1]	relative permittivity, [2]
x1 = 0.029	1.4207	2.525
x1 = 0.098	1.422	3.353
x1 = 0.2	1.4243	4.916
x1 = 0.293	1.4263	6.656
x1 = 0.4	1.4288	8.798
x1 = 0.491	1.4311	11.193
x1 = 0.6	1.434	14.491
x1 = 0.693	1.4363	17.889
x1 = 0.8	1.4392	21.914
x1 = 0.9	1.4418	26.541

CC(O)CCO (stereo unspecified) [1,3-butanediol]
Details	mass density [kg/m3]	refractive index	relative permittivity
[4]	1001.22	–	–
[5]	–	1.4383	–
[6]	–	–	28.692

CCCCC(CC)CO (stereo unspecified) [2-ethyl-1-hexanol] + CC(O)C(C)O
Details	mass density, [3] [kg/m3]	refractive index, [1]	relative permittivity, [2]
x2 = 0	830.62	1.4293	7.611
x2 = 0.1	837.79	1.4294	8.197
x2 = 0.25	854.38	1.4297	9.478
x2 = 0.401	874.23	1.4301	11.075
x2 = 0.499	890.64	1.4308	12.36
x2 = 0.55	897.94	1.4311	13.125
x2 = 0.65	916.49	1.4318	14.659
x2 = 0.75	934.5	1.4324	16.407
x2 = 0.898	966.52	1.4337	19.166

OCCCCO [1,4-butanediol]
Details	mass density [kg/m3]	refractive index	relative permittivity
[4]	1013.45	–	–
[5]	–	1.4447	–
[6]	–	–	31.539
